Patent publication US20230117859A1, “INHALED XENON THERAPY IN NEURODEGENERATIVE DISEASE” (The Brigham and Women`s Hospital, Inc., priority 2020, published 2023)

Assays:
[1] = test system: 6E10+ Abeta plaques and Clec7a+ MGnD microglia in APP/PS1 mice; test: Immunostaining of Ab load (6E10) and Clec7a+ MGnD microglia in cortex of APP/PS1 mice; type: in vivo, mouse
Procedure: APP-PS1 and WT mice were sacrificed and perfused with Hanks' Balanced Salt solution (HBSS). The mouse brains were separated, and the right hemispheres fixed in 4% PFA. After 24 hours the hemispheres were then transferred to a 30% sucrose solution for 48 hours. Brains were later frozen in Tissue-TeK O.C.T. and stored at −80 until ready to be cut. […] sagittal brain sections were cut with a cryostat and kept free floating in cryoprotectant solution. On the first day of staining, free floating brain sections were washed twice with phosphate buffered saline (PBS) and then incubated for one hour in blocking buffer (PBS, 0.1% Triton, 1% Bovine Serum Albumin, 10% Normal Horse Serum). Afterwards, the sections were incubated with primary antibody [Mouse-anti-Abeta Ab (1:1000, Biolegend, 6E10) and Rat-anti-Clec7a (1:300, Invivogen, mabg-mdect)] in pre-blocking buffer (PBS, 0.1% Triton, 1% Bovine Serum Albumin, 5% Normal Horse Serum) on a shaker overnight at 4° C. The following day, the sections were washed three times with PBS. Secondary antibodies (Donkey-anti-mouse-Cy3 (1:800, JIR, 715-165-150) and Goat-anti-Rat-647 (1:800, Invitrogen, A-21247)) in pre-blocking buffer were added to the sections for 1 hour at room temperature. After washing the sections 3 times with PBS, they were moved onto glass slides and covered with a glass coverslip and DAPI. Then images were taken by Leica DMi8 microscope. 4-6 images of prefrontal cortex with 10× magnification were taken per brain section (3 brain sections were stained per mouse, n=3-5).
For quantification of MGnD and Ab load, acquired images were imported to Fiji software (ImageJ). Then the data channels were separated. Gaussian filtering was used to remove noise. Next, the MGnD and plaques were shown using automatic thresholding methods in Fiji (with “Triangle” thresholding setting for MGnD and “Otsu” for Ab load 6E10). Finally, the percentage of the MGnD and Ab plaques over the cortical area was calculated and averaged, indicating the distribution of MGnD and Ab plaques in the prefrontal cortex.

[2] = test system: cortical neurons and basal forebrain cholinergic neurons; conditions: mild excitotoxic stress by continued exposure to PDC; cited from earlier work
[3] = test system: platelets and red blood cells, Lymphocyte-like Jurkat cells, H9C2 and U937 cells; test: Anti-apoptotic effect of Xe-gas on a variety of biological cells; type: cell-based, human
From the text: (§1) FIGS. 7A-D. Xe-treatment prevents apoptosis in variety of cells. A. Viability of lymphocyte-like Jurkat cell after 1 day storage. […] C. Viability of monocyte-like U-937 cells after 1 day storage. D. Viability of monocyte-like U-937 cells after 14 days storage.
(§2) It is known that Xe treatment protects neurons from apoptosis by reducing intracellular calcium, protecting mitochondrial membranes, and attenuating cell damage caused by reactive oxygen species (ROS)^28,29.

[4] = test system: FCRLS+ microglia in APP/PS1 mice; test: RNAseq of FCRLS+ microglia from Xe-treated APP/PS1 mice; type: in vivo, mouse
From the text: Based on recent findings that danger signals (dead neurons, neuritic axons and Ab peptides) alter functional phenotype of microglia from the homeostatic (M0) to neurodegenerative (MGnD) phenotype in AD, we hypothesized that Xe-gas treatment has a protective immunomodulatory role to restore homeostatic ‘sensome’ microglial functions in neurodegenerative diseases. To address whether Xe-treatment will restore functional microglia and suppress AD-like pathology in APP-PS1^30 mice, we started treatment with Xe at 2 months of age (at the onset of amyloid deposition—early stage) for 8 weeks (once a week for 40 minutes). Of note, these mice start to develop plaques at 6 weeks of age with saturation around 8 months of age. To treat mice with xenon gas we constructed a special chamber which can control supply of Xe and atmospheric gas (FIG. 3A). The closed-circuit system pumps recirculated gas through soda-lime to absorb CO2. CO2 and O2 concentrations were continuously monitored. The gas mixture was premixed in the outside container with excessive pressure. That lead to approximately 70% Xe and 20% 02 in the chamber. When 02 concentration reduced, additional gas mixture was supplied from the mixing container. The system was optimized to treat simultaneously up to 6 mice. Two types of mice were used: APP/PS1 mice and Wild Type mice as a control. The groups contained both males and females who were housed and treated separately. In each group we subjected portion of the mice to Xe treatment, and another portion was used as control by treatment with atmospheric air (FIG. 3B). We isolated FCRLS^+ microglia by FACS and performed RNAseq analysis.

EAE in C57BL6 animals = test: Experimental autoimmune encephalomyelitis (EAE) model; type: in vivo, mouse
Procedure: FIGS. 9A-E. Xenon treatments delayed EAE symptoms. A. Scheme representative of experimental design used. C57BL6 animals were immunized with 150 ug of MOG diluted v/v in CFA followed by two doses of B. Pertussis toxin (200 ng) applied during immunization and 48 hours later. The treatment with xenon consisted of a 40 minutes exposure twice a week starting on day 0. After clinical evaluation the animals were euthanized at the peak of the disease and the frequency of inflammatory cells evaluated by flow cytometry and IHC. B. Score curve from clinical signs. C. Evaluation of microglia cells from spinal cord by flow cytometry. Gate based on population CD45+, CD11b+, Ly6C−, Clec12a−. D. T Helper cells evaluation by flow cytometry. E. Immunofluorescence of spinal cord from animals on day 17th. At top the control animals and at the bottom the animals treated with Xenon. The tissue was stained for Tmem119, Clec7a and MBP, quantification measured by the Fiji ImageJ software. Statistical analysis: T-test. In order to evaluate the effects of Xenon as a possible candidate for Multiple Sclerosis (MS) treatment, we development a new protocol of exposition. We used the experimental autoimmune encephalomyelitis (EAE) model that mimics part of the mechanisms presents in MS. The induction of this model is due to the combination of the oligodendrocyte myelin (MOG) diluted in complete Freund's adjuvant (CFA) to break immunological tolerance and initiate the development of autoimmunity in these animals. In association we give two 200 ng doses of Bordetella Pertussis toxin that helps in increasing the permeability of the blood-brain barrier allowing the entry of immune cells to the spinal cord. The treatment with xenon was divided into 5 exposures of 40 minutes divided twice a week in the concentration of 3 PSI of xenon with 1 PSI of oxygen with the oxygen and CO2 concentration constantly measured. This treatment took place from day 0 to day 15 after immunization, with the animals' euthanasia on day 17 (See FIG. 9A). The clinical evaluation started on day 8 with the clinical signs being classified into: 0 no disease, 1—limp tail, 2—weak/partially paralyzed hind legs, 3—completely paralyzed hind legs, 4—complete hind and partial front leg paralysis, 5—complete paralysis/death.

[5] = test system: dN-phagocytic microglia (MG-dNΦ); test: Acute neurodegeneration mouse model (dead neurons injection), RNA-Sequencing of microglia; type: in vivo
Procedure: We developed a new acute neurodegeneration mouse model to induce neurodegenerative MGnD-microglia^36. In brief, primary neurons (d7-d10) were typically cultured one week after initiation of culture. Neurons were removed from the surface of the plate by multiple washed with PBS. The neurons were then incubated under UV light (302 nm) at an intensity of 6315 W for 15 minutes to induce apoptosis. After this step the neurons were kept on ice. The cells were collected, spun down via centrifugation, and resuspended in 1 ml PBS. Next they were stained with the labeling dye (Alexa405 NHS Ester, Invitrogen, A3000) for 15 min at 37° C., protected from light. Neurons were then washed, spun and resuspended. Number of apoptotic cells was determined using a trypan blue stain and a cellometer. Neurons were resuspended at a density of 50,000 cells per μl.
These apoptotic dead neurons (dN) injected into the cortex and hippocampus of naïve mice induced the recruitment of P2ry12^+ microglia towards the site of injection. P2ry12^+ microglia changed morphology from an M0-homeostatic non-phagocytic (MG-nΦ) phenotype to an amoeboid-phagocytic (MG-dNΦ) phenotype at the vicinity of the injection site. Induction of MGnD microglia was not detected in PBS-injected control brains. […] Trem2 expression has been shown previously, including by our laboratory and others, to have beneficial effect on microglia recruitment towards Aβ-plaques^61-63, associated with restriction of AD^64. Moreover, TREM2 has been recently identified as a receptor for Aβ^65. […] This provides evidence that Xe-gas treatment has a protective immunomodulatory role to induce microglia protective functions to treat AD.

[6] = test system: Apoe in CD68+ phagosomes in APP/PS1 mice; test: Apoe engulfed in CD68+ phagosomes in APP/PS1 mice; type: in vivo, mouse
Procedure: APP-PS1 and WT mice were exposed to Xenon vs. normal air in vivo for 8 weeks. After that, the mice were sacrificed and perfused with Hanks' Balanced Salt solution (HBSS). The mouse brain was separated, and the right hemisphere was fixed in 4% PFA. After 24 hours the hemisphere was then transferred to a 30% sucrose solution for 48 hours. Brains were later frozen in Tissue-TeK O.C.T. and stored at −80 until ready to be cut. […] sagittal brain sections were cut with a cryostat and kept free floating in cryoprotectant solution. On the first day of staining, free floating brain sections were washed twice with phosphate buffered saline (PBS) and then incubated for one hour in blocking buffer (PBS, 0.1% Triton, 1% Bovine Serum Albumin, 10% Normal Horse Serum). Afterwards, the sections were incubated with primary antibody [Mouse-anti-Apoe (1:1000) and Rat-anti-CD68 (1:200)] in pre-blocking buffer (PBS, 0.1% Triton, 1% Bovine Serum Albumin, 5% Normal Horse Serum) on a shaker overnight at 4° C. The following day, the sections were washed three times with PBS. […] For quantification of the percentage of Apoe engulfed in CD68^+ phagosomes, acquired images were imported to Fiji software (ImageJ). […] The overlap of the staining/CD68+ staining was quantified in both groups. […]

U-937 cells = test: Apoptosis in stored U-937 cells; type: cell-based, human; conditions: xenon vs no gas
From the text: as §1, §2

[7] = Xe-gas for one hour immediately after dead neurons injection

SMILES: [Xe] [Xenon]
- % positive area stained by Clec7a ([1]; APP/PS1 mice, cortex, compared to the control group): significantly decreased
- % cortical area of 6E10+ Abeta plaques ([1]; APP/PS1 mice, prefrontal cortex, compared to the control group): significant reduction
- number of plaques of different sizes ([1]; all groups of different plaque sizes): reduction in all groups
- number of plaques, plaque size 0-100 um2 ([1]; plaque size 0-100 um2): reduction reached significance
- antiapoptotic effect on neurons in AD cell models [2]: direct antiapoptotic effect
- anti-apoptotic effect [3]: profound anti-apoptotic effect
- cytokines induced in MGnD-microglia associated with Aβ-plaques, such as Spp1, Apoe, and Igf1 [4]: suppresses
- Bhlhe40 in microglia ([4]; Xe once a week for 40 minutes for 8 weeks): significantly reduced
- expression of inflammatory genes including App, Lpl, IIlb, Spp1 and Apoe in microglia ([4]; Xe once a week for 40 minutes for 8 weeks, approx. 70% Xe and 20% O2): suppressed
- clinical signs (EAE score) (EAE in C57BL6 animals; 5 exposures of 40 minutes twice a week, day 0 to day 15): delay
- expression of CD44 (activation marker) in T lymphocytes (EAE in C57BL6 animals; flow cytometry): tendency to lower expression
- frequency of IFNg in T lymphocytes (EAE in C57BL6 animals; flow cytometry): higher frequency
- frequency of clec7a+ cells in the spinal cord (EAE in C57BL6 animals; immunohistochemistry, day 17): decrease in the frequency
- frequency of microglial cells positive for Clec7a (EAE in C57BL6 animals; spinal cord, flow cytometry): lower frequency
- frequency of microglial cells positive for Tmem119, PD1 and CD206 (EAE in C57BL6 animals; spinal cord, flow cytometry): tended to have a higher frequency
- demyelination (EAE in C57BL6 animals; spinal cord, immunohistochemistry, day 17): tendency of less demyelination
- Trem2 expression in microglia [5, 7]: significantly induced
- expression of homeostatic genes such as Siglech, Cst3, Fcgrt and Clqb [5, 7]: induces expression
- homeostatic and phagocytosis-related genes in MG-dNΦ ([5]; Xenon vs. normal air in vivo, RNA-Sequencing): induces
- APOE in the plaque region ([6]; APP/PS1 mice): reduced
- APOE phagocytosed by CD68+ cells ([6]; APP/PS1 mice exposed to Xenon vs. normal air for 8 weeks): significant reduction
- apoptosis in stored U-937 cells (U-937 cells): inhibited apoptosis
